Patent publication US10548894B2, “Combination therapy” (Array BioPharma Inc., priority 2013, dated 2020)

What was measured:
Experiment in all cases: 72 hr cell titer Glo proliferation assay, BRAFV600E mutant CRC cell lines
Format in all cases: cell-based
CL-34 = settings: CL-34, single agent
Experimental: (§1) Single agent and combinatorial effects on proliferation of inhibitors of RAF (Compound of Formula (I)) and PIK3Ca (Compound X) kinases in seven BRAF-mutant CRC-derived cell lines. All cell lines express the BRAFV600E protein. Cells harboring known or putative activating mutations in the PI3Kα gene are marked with a (*) and cells with PTEN loss marked with a (#). Cell proliferation was measured in 72 hr cell titer Glo™ assays and all results supplied are the result of at least triplicate measurements. Shown are single agent IC50 values for the Compound of Formula (I) and Compound X. Synergy score (SS) measurements as well as the combination index (C150) at the 50% effect level are given for each combination) in Table 6. Interactions were deemed synergistic when SS values were ≥2.0 and CI values were ≤0.5. Interactions were deemed additive/synergistic when either SS values were ≥2.0 but CI values were >0.5 or SS values were <2.0 but CI values were ≤0.5. Interactions where termed additive when SS values were <2.0 and CI values were >0.5. Synergy calls are given in the “effect description” columns.

COLO 205 = settings: COLO 205, single agent
Experimental: as §1

HT-29 = HT-29 (PI3Kα mutation), single agent
Experimental: as §1

LS411N = settings: single agent
Experimental: as §1

OUMS-23 = OUMS-23 (PTEN loss), single agent
Experimental: as §1

RKO = RKO (PI3Kα mutation), single agent
Experimental: as §1

SNU-C5 = SNU-C5 (PI3Kα mutation), single agent
Experimental: as §1

SW1417 = settings: SW1417, single agent
Experimental: as §1

Measured: IC50

Cc1nc(NC(=O)N2CCC[C@H]2C(N)=O)sc1-c1ccnc(C(C)(C)C(F)(F)F)c1 [Compound X, (S)-Pyrrolidine-1,2-dicarboxylic acid 2-amide 1-({4-methyl-5-[2-(2,2,2-trifluoro-1,1-dimethyl-ethyl)-pyridin-4-yl]-thiazol-2-yl}-amide)]
> 2700 nM: all assays above
